{"source": "patent US3948899A", "about": "“α-Cyanobenzylpiperazines and a process for producing the same” (Fuji Chemical Industry Co., Ltd., priority 1973, dated 1976)", "key": {"[1]": {"test_system": "mongrel adult dogs", "assay": "Effects on arterial mean blood pressure (thoractomized anesthetized dogs, i.v.)", "assay_type": "in vivo, dog", "procedure": "(§1) All experiments were conducted on male and female thoractomized mongrel adult dogs weighing about 10 Kg under anesthesia with pentobarbital sodium.\n(§2) Arterial blood pressure was measured by pressure transducer (Nippon Koden MPU-0.5) connected with the cannula inserted from exposed carotid artery into aorta. Aortic blood flow was determined by means of electromagnetic flow meter (Nippon Koden MF-5) mounted at an origin of aorta. Coronary sinus out flow and coronary sinus oxygen tension were assessed by means of electromagnetic flow meter (Nippon Koden MF-5) and Po2 Macro electrode (Beckmann Moder 160-C), respectively, using Morawitz cannulization technique. Heart rate was measured by cardiotachometer (Nippon Koden RT-2) synchronized with systolic blood pressure of aorta."}, "[2]": {"test_system": "mongrel adult dogs", "assay": "Effects on coronary sinus oxygen tension (thoractomized anesthetized dogs, i.v.)", "assay_type": "in vivo, dog", "procedure": "as §1, §2"}, "[3]": {"assay": "Acute toxicity (LD50; per os, mice)", "assay_type": "in vivo", "conditions": "mouse, in vivo, po, dd-0train male mice", "procedure": "7. Acute Toxicity (See Table 7) Acute toxicity (LD50; per os, mice) was measured in dd-0train male mice."}, "[4]": {"test_system": "mongrel adult dogs", "assay": "Effects on coronary sinus out flow (thoractomized anesthetized dogs, i.v.)", "assay_type": "in vivo, dog", "procedure": "as §1, §2"}}, "note": "Structures can show the parent of a compound that is named as a salt.", "data": [{"smiles": "COc1ccc(CN2CCNCC2)c(OC)c1OC", "note": "[Vastarel F, 2,3,4 -trimethoxybenzylpiperazine dihydrochloride]", "values": [{"measurement": "Changes(%) of basal values, arterial mean blood pressure", "setting": "[1]; i.v. 0.2 mg/Kg, 1 min", "result": -1.0, "unit": "%"}, {"measurement": "Changes(%) of basal values, arterial mean blood pressure", "setting": "[1]; i.v. 0.2 mg/Kg, 5 min", "result": -2.0, "unit": "%"}, {"measurement": "Changes(%) of basal values, arterial mean blood pressure", "setting": "[1]; i.v. 0.2 mg/Kg, 10 min", "result": -1.5, "unit": "%"}, {"measurement": "Changes(%) of basal values, arterial mean blood pressure", "setting": "[1]; i.v. 0.2 mg/Kg, 15 min", "result": -1.0, "unit": "%"}, {"measurement": "Changes(%) of basal values, arterial mean blood pressure", "setting": "[1]; i.v. 0.2 mg/Kg, 20 min", "result": 0, "unit": "%"}, {"measurement": "Changes(%) of basal values, arterial mean blood pressure", "setting": "[1]; i.v. 0.2 mg/Kg, 25 min", "result": 0, "unit": "%"}, {"measurement": "Changes(%) of basal values, arterial mean blood pressure", "setting": "[1]; i.v. 0.2 mg/Kg, 30 min", "result": 0, "unit": "%"}, {"measurement": "Changes(%) of basal values, arterial mean blood pressure", "setting": "[1]; i.v. 0.2 mg/Kg, imm.", "result": -3.0, "unit": "%"}, {"measurement": "Changes(%) of basal values, arterial mean blood pressure", "setting": "[1]; i.v. 0.6 mg/Kg, 1 min", "result": -2.0, "unit": "%"}, {"measurement": "Changes(%) of basal values, arterial mean blood pressure", "setting": "[1]; i.v. 0.6 mg/Kg, 5 min", "result": -1.5, "unit": "%"}, {"measurement": "Changes(%) of basal values, arterial mean blood pressure", "setting": "[1]; i.v. 0.6 mg/Kg, 10 min", "result": -1.0, "unit": "%"}, {"measurement": "Changes(%) of basal values, arterial mean blood pressure", "setting": "[1]; i.v. 0.6 mg/Kg, 15 min", "result": -1.0, "unit": "%"}, {"measurement": "Changes(%) of basal values, arterial mean blood pressure", "setting": "[1]; i.v. 0.6 mg/Kg, 20 min", "result": 0, "unit": "%"}, {"measurement": "Changes(%) of basal values, arterial mean blood pressure", "setting": "[1]; i.v. 0.6 mg/Kg, 25 min", "result": 0, "unit": "%"}, {"measurement": "Changes(%) of basal values, arterial mean blood pressure", "setting": "[1]; i.v. 0.6 mg/Kg, 30 min", "result": 0, "unit": "%"}, {"measurement": "Changes(%) of basal values, arterial mean blood pressure", "setting": "[1]; i.v. 0.6 mg/Kg, imm.", "result": -6.0, "unit": "%"}, {"measurement": "Changes(%) of basal values, arterial mean blood pressure", "setting": "[1]; i.v. 2.0 mg/Kg, 1 min", "result": -35.0, "unit": "%"}, {"measurement": "Changes(%) of basal values, arterial mean blood pressure", "setting": "[1]; i.v. 2.0 mg/Kg, 5 min", "result": -2.0, "unit": "%"}, {"measurement": "Changes(%) of basal values, arterial mean blood pressure", "setting": "[1]; i.v. 2.0 mg/Kg, 10 min", "result": -1.0, "unit": "%"}, {"measurement": "Changes(%) of basal values, arterial mean blood pressure", "setting": "[1]; i.v. 2.0 mg/Kg, 15 min", "result": 0, "unit": "%"}, {"measurement": "Changes(%) of basal values, arterial mean blood pressure", "setting": "[1]; i.v. 2.0 mg/Kg, 20 min", "result": -1.0, "unit": "%"}, {"measurement": "Changes(%) of basal values, arterial mean blood pressure", "setting": "[1]; i.v. 2.0 mg/Kg, 25 min", "result": -2.0, "unit": "%"}, {"measurement": "Changes(%) of basal values, arterial mean blood pressure", "setting": "[1]; i.v. 2.0 mg/Kg, 30 min", "result": -2.0, "unit": "%"}, {"measurement": "Changes(%) of basal values, arterial mean blood pressure", "setting": "[1]; i.v. 2.0 mg/Kg, imm.", "result": -55.0, "unit": "%"}, {"measurement": "Changes(%) of basal values, coronary sinus oxygen tension", "setting": "[2]; i.v. 0.2 mg/Kg, 1 min", "result": "+1.0%"}, {"measurement": "Changes(%) of basal values, coronary sinus oxygen tension", "setting": "[2]; i.v. 0.2 mg/Kg, 5 min", "result": 0, "unit": "%"}, {"measurement": "Changes(%) of basal values, coronary sinus oxygen tension", "setting": "[2]; i.v. 0.2 mg/Kg, 10 min", "result": 0, "unit": "%"}, {"measurement": "Changes(%) of basal values, coronary sinus oxygen tension", "setting": "[2]; i.v. 0.2 mg/Kg, 15 min", "result": 0, "unit": "%"}, {"measurement": "Changes(%) of basal values, coronary sinus oxygen tension", "setting": "[2]; i.v. 0.2 mg/Kg, 20 min", "result": 0, "unit": "%"}, {"measurement": "Changes(%) of basal values, coronary sinus oxygen tension", "setting": "[2]; i.v. 0.2 mg/Kg, 25 min", "result": 0, "unit": "%"}, {"measurement": "Changes(%) of basal values, coronary sinus oxygen tension", "setting": "[2]; i.v. 0.2 mg/Kg, 30 min", "result": 0, "unit": "%"}, {"measurement": "Changes(%) of basal values, coronary sinus oxygen tension", "setting": "[2]; i.v. 0.2 mg/Kg, imm.", "result": "+3.0%"}, {"measurement": "Changes(%) of basal values, coronary sinus oxygen tension", "setting": "[2]; i.v. 0.6 mg/Kg, 1 min", "result": "+5.5%"}, {"measurement": "Changes(%) of basal values, coronary sinus oxygen tension", "setting": "[2]; i.v. 0.6 mg/Kg, 5 min", "result": "+1.0%"}, {"measurement": "Changes(%) of basal values, coronary sinus oxygen tension", "setting": "[2]; i.v. 0.6 mg/Kg, 10 min", "result": 0, "unit": "%"}, {"measurement": "Changes(%) of basal values, coronary sinus oxygen tension", "setting": "[2]; i.v. 0.6 mg/Kg, 15 min", "result": 0, "unit": "%"}, {"measurement": "Changes(%) of basal values, coronary sinus oxygen tension", "setting": "[2]; i.v. 0.6 mg/Kg, 20 min", "result": 0, "unit": "%"}, {"measurement": "Changes(%) of basal values, coronary sinus oxygen tension", "setting": "[2]; i.v. 0.6 mg/Kg, 25 min", "result": 0, "unit": "%"}, {"measurement": "Changes(%) of basal values, coronary sinus oxygen tension", "setting": "[2]; i.v. 0.6 mg/Kg, 30 min", "result": 0, "unit": "%"}, {"measurement": "Changes(%) of basal values, coronary sinus oxygen tension", "setting": "[2]; i.v. 0.6 mg/Kg, imm.", "result": "+9.0%"}, {"measurement": "Changes(%) of basal values, coronary sinus oxygen tension", "setting": "[2]; i.v. 2.0 mg/Kg, 1 min", "result": "+1.5%"}, {"measurement": "Changes(%) of basal values, coronary sinus oxygen tension", "setting": "[2]; i.v. 2.0 mg/Kg, 5 min", "result": "+2.0%"}, {"measurement": "Changes(%) of basal values, coronary sinus oxygen tension", "setting": "[2]; i.v. 2.0 mg/Kg, 10 min", "result": "+5.0%"}, {"measurement": "Changes(%) of basal values, coronary sinus oxygen tension", "setting": "[2]; i.v. 2.0 mg/Kg, 15 min", "result": "+5.0%"}, {"measurement": "Changes(%) of basal values, coronary sinus oxygen tension", "setting": "[2]; i.v. 2.0 mg/Kg, 20 min", "result": "+3.0%"}, {"measurement": "Changes(%) of basal values, coronary sinus oxygen tension", "setting": "[2]; i.v. 2.0 mg/Kg, 25 min", "result": "+0.5%"}, {"measurement": "Changes(%) of basal values, coronary sinus oxygen tension", "setting": "[2]; i.v. 2.0 mg/Kg, 30 min", "result": 0, "unit": "%"}, {"measurement": "Changes(%) of basal values, coronary sinus oxygen tension", "setting": "[2]; i.v. 2.0 mg/Kg, imm.", "result": "+3.0%"}, {"measurement": "Increase in oxygen tension", "setting": "[2]; i.v., between 5 and 20 minutes", "result": "up to 5%"}, {"measurement": "LD50", "setting": "[3]", "result": 960, "unit": "mg/kg"}, {"measurement": "Changes(%) of basal values, coronery sinus out flow", "setting": "[4]; i.v. 0.2 mg/Kg, 1 min", "result": "+1.0%"}, {"measurement": "Changes(%) of basal values, coronery sinus out flow", "setting": "[4]; i.v. 0.2 mg/Kg, 5 min", "result": 0, "unit": "%"}, {"measurement": "Changes(%) of basal values, coronery sinus out flow", "setting": "[4]; i.v. 0.2 mg/Kg, 10 min", "result": 0, "unit": "%"}, {"measurement": "Changes(%) of basal values, coronery sinus out flow", "setting": "[4]; i.v. 0.2 mg/Kg, 15 min", "result": 0, "unit": "%"}, {"measurement": "Changes(%) of basal values, coronery sinus out flow", "setting": "[4]; i.v. 0.2 mg/Kg, 20 min", "result": 0, "unit": "%"}, {"measurement": "Changes(%) of basal values, coronery sinus out flow", "setting": "[4]; i.v. 0.2 mg/Kg, 25 min", "result": 0, "unit": "%"}, {"measurement": "Changes(%) of basal values, coronery sinus out flow", "setting": "[4]; i.v. 0.2 mg/Kg, 30 min", "result": 0, "unit": "%"}, {"measurement": "Changes(%) of basal values, coronery sinus out flow", "setting": "[4]; i.v. 0.2 mg/Kg, imm.", "result": "+4.0%"}, {"measurement": "Changes(%) of basal values, coronery sinus out flow", "setting": "[4]; i.v. 0.6 mg/Kg, 1 min", "result": "+2.5%"}, {"measurement": "Changes(%) of basal values, coronery sinus out flow", "setting": "[4]; i.v. 0.6 mg/Kg, 5 min", "result": "+2.5%"}, {"measurement": "Changes(%) of basal values, coronery sinus out flow", "setting": "[4]; i.v. 0.6 mg/Kg, 10 min", "result": 0, "unit": "%"}, {"measurement": "Changes(%) of basal values, coronery sinus out flow", "setting": "[4]; i.v. 0.6 mg/Kg, 15 min", "result": 0, "unit": "%"}, {"measurement": "Changes(%) of basal values, coronery sinus out flow", "setting": "[4]; i.v. 0.6 mg/Kg, 20 min", "result": 0, "unit": "%"}, {"measurement": "Changes(%) of basal values, coronery sinus out flow", "setting": "[4]; i.v. 0.6 mg/Kg, 25 min", "result": 0, "unit": "%"}, {"measurement": "Changes(%) of basal values, coronery sinus out flow", "setting": "[4]; i.v. 0.6 mg/Kg, 30 min", "result": 0, "unit": "%"}, {"measurement": "Changes(%) of basal values, coronery sinus out flow", "setting": "[4]; i.v. 0.6 mg/Kg, imm.", "result": "+6.0%"}, {"measurement": "Changes(%) of basal values, coronery sinus out flow", "setting": "[4]; i.v. 2.0 mg/Kg, 1 min", "result": -3.0, "unit": "%"}, {"measurement": "Changes(%) of basal values, coronery sinus out flow", "setting": "[4]; i.v. 2.0 mg/Kg, 5 min", "result": "+3.0%"}, {"measurement": "Changes(%) of basal values, coronery sinus out flow", "setting": "[4]; i.v. 2.0 mg/Kg, 10 min", "result": "+9.0%"}, {"measurement": "Changes(%) of basal values, coronery sinus out flow", "setting": "[4]; i.v. 2.0 mg/Kg, 15 min", "result": "+8.0%"}, {"measurement": "Changes(%) of basal values, coronery sinus out flow", "setting": "[4]; i.v. 2.0 mg/Kg, 20 min", "result": "+4.0%"}, {"measurement": "Changes(%) of basal values, coronery sinus out flow", "setting": "[4]; i.v. 2.0 mg/Kg, 25 min", "result": "+1.0%"}, {"measurement": "Changes(%) of basal values, coronery sinus out flow", "setting": "[4]; i.v. 2.0 mg/Kg, 30 min", "result": 0, "unit": "%"}, {"measurement": "Changes(%) of basal values, coronery sinus out flow", "setting": "[4]; i.v. 2.0 mg/Kg, imm.", "result": -13.0, "unit": "%"}]}]}
